System: endothelial cells (ECs)
Assay: vWf release from ECs exposed directly to PAF or thrombin
Protocol: Synthetic PAF (1-O-alkyl-2-acetyl-sn-glyceryl-3-phosphorylcholine; Sigma #P-9525) prepared from bovine heart lecithin (Demopoulos et al. (1979) J. Biol. Chem. 254: 9355-358) was 99% pure by TLC analysis, HPLC analysis indicated this product consisted of 70% C16 and 13% C18 forms of PAF (Mita et al., (1989) Anal. Biochem. 180:131-135). After removal of chloroform, PAF was resuspended in DMEM/F12 culture medium containing 1% Nutridoma-HU (final protein concentration of 40 μM stock solution). After sonication for 3×1 minute periods, the PAF solution was diluted and used immediately.
Media with or without thrombin (@5 units/mL) served as positive and negative controls respectively. ECs were incubated for 1, 10, 20 or 30 minutes and 1, 2, 4, 6 and 24 hours in the PAF and thrombin time course studies. The EC conditioned media were recovered, centrifuged to remove any cell debris, and then frozen at -80° C. for a maximum period of 4 weeks prior to analyses. […] Where appropriate ECs were preincubated with BTP-dioxolane which was not cytotoxic to the cells as determined by the dye exclusion test.
Endothelial cells (ECs) were harvested from human umbilical cord vein as described by Jaffe et al. ((1973) Culture of Human Endothelial Cells Derived from Umbilical Veins: Identification by Morphologic and Immunologic Criteria, J. Clin. Invest. 52:2745-2756) and modified by Hashemi et al. (1990, supra). Endothelial cells were subcultured in 0.2% (w/v) gelatin-coated, 12-well Linbro™ polystyrene, tissue culture plates (Flow Laboratories, Mississauga, Ontario), then plated at a density of 1-2×10^4 /well and grown to confluence.
The standard consisted of a pool of plasma from 20 normal individuals previously determined to contain 1 unit of vWf per mL by the procedure of Zimmerman et al. (1977, J. Clin. Invest. 59:984-989). […] For some experiments, the maximum vWf that could be released was determined. Following incubation, the EC conditioned media were recovered and fresh media containing 0.05% (v/v) Tween 20 and 10 μM each of the protease inhibitors D-phenylalanyl-phenylalanyl-arginyl-chloromethyl ketone, D-phenylalanyl-propyl-arginyl-chloromethyl ketone and 1,5-Dansyl-glutamyl-glycyl-arginyl-chloromethyl ketone were added to the EC monolayers of each corresponding well. The cells were freeze-thawed three times and, to assure complete breakdown of the cell membranes as well as the Weibel-Palade bodies, disrupted in a glass homogenizer using a motor-driven teflon pestle. After centrifugation, total vWf concentration was determined in the supernatants.
In order to examine the responsiveness of ECs to direct PAF exposure, we incubated the monolayers of ECs with 0-300 pico molar (pM) PAF for a period of 4 hours at 37° C. and determined the amount of vWf released into the EC media. […] To determine the time course of PAF effects on vWf release, 300 pM PAF was incubated with monolayers of ECs for 1, 10, 20 and 30 minutes as well as for 1, 2, 4, 6 and 24 hours. […] As a control, the vWf release from thrombin stimulated ECs was also determined (FIG. 5).

Substance: Thrombin
- Increase in vWf release (%), BTP-dioxolane absent (thrombin 5 U/mL, 4 hours, n=5): 123.5 ± 11.3%
- vWf release from ECs (optimal effect) (thrombin (5 units/mL), 10 minutes, P<0.001): 368%
- vWf release from ECs (thrombin (5 units/mL), 30 minutes): 261%
- vWf release from ECs (thrombin (5 units/mL), 1 hour): 137%
- vWf release from ECs (thrombin (5 units/mL), 24 hours): 88%
